Results taken from ChEMBL document CHEMBL1821714, “Discovery, synthesis and SAR of azinyl- and azolylbenzamides antagonists of the P2X₇ receptor” (Bioorg Med Chem Lett, 2011).
One block for each molecule: values may come before it.

Key:
[1] = target: T1, P2X purinoceptor 7 (Homo sapiens) (UniProt Q99572); assay: Antagonist activity at P2X7R expressed in LPS-activated human monocytes assessed as inhibition of ATP-induced IL1-beta release at 1 uM in presence of low serum concentration; format: functional, cell-based
T1 sequence (whole entry): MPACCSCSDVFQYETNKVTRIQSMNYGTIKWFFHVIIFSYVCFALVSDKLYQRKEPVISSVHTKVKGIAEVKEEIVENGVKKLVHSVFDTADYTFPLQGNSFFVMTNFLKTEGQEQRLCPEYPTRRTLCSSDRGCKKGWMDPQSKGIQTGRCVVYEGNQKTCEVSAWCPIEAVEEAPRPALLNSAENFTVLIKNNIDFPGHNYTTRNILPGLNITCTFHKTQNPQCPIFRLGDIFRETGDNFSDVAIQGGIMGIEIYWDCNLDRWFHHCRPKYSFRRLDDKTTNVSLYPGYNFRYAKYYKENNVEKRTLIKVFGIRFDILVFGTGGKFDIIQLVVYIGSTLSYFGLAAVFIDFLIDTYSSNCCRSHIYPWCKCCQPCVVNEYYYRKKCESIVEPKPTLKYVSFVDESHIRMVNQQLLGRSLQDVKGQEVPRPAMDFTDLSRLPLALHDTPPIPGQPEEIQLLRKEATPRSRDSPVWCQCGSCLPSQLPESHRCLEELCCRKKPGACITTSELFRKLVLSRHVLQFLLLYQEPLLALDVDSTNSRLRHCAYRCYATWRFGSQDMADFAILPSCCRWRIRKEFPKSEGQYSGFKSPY

P2X purinoceptor 7 [2] = target: T2, P2X purinoceptor 7 (Homo sapiens, UniProt Q99572); assay: Antagonist activity at P2X7R expressed in LPS-activated human monocytes assessed as inhibition of ATP-induced IL1-beta release in presence of low serum concentration; format: functional, cell-based
T2 sequence (Q99572 whole entry): T1 sequence (whole entry)

P2X purinoceptor 7 [3] = target: T2, P2X purinoceptor 7; assay: Antagonist activity at P2X7R expressed in HEK293 cells assessed as inhibition of ATP-induced YO-PRO-1 uptake; format: functional, cell-based
P2X purinoceptor 7 [4] = target: T2, P2X purinoceptor 7; assay: Antagonist activity at P2X7R expressed in LPS-stimulated human whole blood assessed as inhibition of ATP-induced IL1-beta release; format: functional, tissue-based
[5] = Half life in human liver microsomes
MDCK [6] = assay: Ratio of permeability from basolateral to apical over apical to basolateral side in dog MDCK cells expressing MDR1; format: ADME, cell-based, Canis lupus familiaris
MDCK [7] = assay: Permeability from basolateral to apical side of dog MDCK cells expressing MDR1; format: ADME, cell-based, Canis lupus familiaris
[8] = Permeability from apical to basolateral side of human Caco2 cells; format: ADME, cell-based; details: Caco-2, read-out: permeability
MDCK [9] = assay: Permeability from apical to basolateral side of dog MDCK cells expressing MDR1; format: ADME, cell-based, Canis lupus familiaris
[10] = Distribution coefficient, log D of the compound; format: physicochemical; details: octanol/water
[11] = Lipophilicity, log P of the compound; format: physicochemical; details: octanol/water
[12] = Oral bioavailability in rat; details: in vivo
[13] = Volume of distribution at steady state in iv dosed rat; details: in vivo
[14] = Half life in iv dosed rat; details: in vivo

inhibition [1]: 0%
Compound: Cc1cccnc1-c1ccc(Cl)c(C(=O)NCCc2ccccc2Cl)c1

IC50 (P2X purinoceptor 7 [2]): 0.46 µM
Compound: O=C(NCCc1ccccc1Cl)c1cc(-c2ccc(Cl)cn2)ccc1Cl

IC50 (P2X purinoceptor 7 [2]): 5.2 µM
Compound: O=C(NCCc1ccccc1Cl)c1cc(-c2ccncc2)ccc1Cl

IC50 (P2X purinoceptor 7 [3]): 0.028 µM
IC50 (P2X purinoceptor 7 [4]): 0.51 µM
half-life ([5]; liver microsomes): 1.28 h
Compound: COc1ccc(-c2ccc(Cl)c(C(=O)NCC3(O)CCCCCC3)c2)nn1

IC50 (P2X purinoceptor 7 [2]): 0.51 µM
half-life ([5]; liver microsomes): 1.42 h
Compound: O=C(NCC1(O)CCCCCC1)c1cc(-c2c[nH]cn2)ccc1Cl

IC50 (P2X purinoceptor 7 [2]): 0.007 µM
IC50 (P2X purinoceptor 7 [3]): 0.003 µM
IC50 (P2X purinoceptor 7 [4]): 0.01 µM
half-life ([5]; liver microsomes): > 2 h
Ratio (MDCK [6]): 10.5
permeability (MDCK [7]): 2.2 ×10⁻⁶ cm/s
Papp A→B [8]: 10.5 ×10⁻⁶ cm/s
permeability (MDCK [9]): 0.26 ×10⁻⁶ cm/s
logD [10]: 1.6
logP [11]: 2.6
Compound: Cc1cc(-c2ccc(Cl)c(C(=O)NCC3(O)CCCCCC3)c2)nn1C[C@H](O)CN.Cl

inhibition [1]: 0%
Compound: CC(=O)c1ccc(-c2ccc(Cl)c(C(=O)NCCc3ccccc3Cl)c2)nc1

inhibition [1]: 0%
Compound: Cc1ccnc(-c2ccc(Cl)c(C(=O)NCCc3ccccc3Cl)c2)c1

IC50 (P2X purinoceptor 7 [2]): 0.668 µM
Compound: CC(O)c1ccc(-c2ccc(Cl)c(C(=O)NCCc3ccccc3Cl)c2)nc1 (stereo not drawn)

IC50 (P2X purinoceptor 7 [2]): 1.6 µM
Compound: O=C(NCCc1ccccc1Cl)c1cc(-c2ccccn2)ccc1Cl

IC50 (P2X purinoceptor 7 [3]): 0.012 µM
IC50 (P2X purinoceptor 7 [4]): 0.61 µM
half-life ([5]; liver microsomes): 0.2 h
Compound: O=C(NCC1(O)CCCCCC1)c1cc(-c2cc[nH]n2)ccc1Cl

IC50 (P2X purinoceptor 7 [2]): 0.72 µM
Compound: NC(=O)c1ccc(-c2ccc(Cl)c(C(=O)NCCc3ccccc3Cl)c2)nc1

inhibition [1]: 0%
Compound: N#Cc1ccc(-c2ccc(Cl)c(C(=O)NCCc3ccccc3Cl)c2)nc1

IC50 (P2X purinoceptor 7 [2]): > 1 µM
IC50 (P2X purinoceptor 7 [3]): 0.266 µM
Compound: Cn1nccc1-c1ccc(Cl)c(C(=O)NCC2(O)CCCCCC2)c1

IC50 (P2X purinoceptor 7 [2]): 0.238 µM
IC50 (P2X purinoceptor 7 [4]): 0.44 µM
half-life ([5]; liver microsomes): 0.0617 h
Compound: Cn1ccc(-c2ccc(Cl)c(C(=O)NCC3(O)CCCCCC3)c2)n1

IC50 (P2X purinoceptor 7 [2]): 4.8 µM
Compound: O=C(NCCc1ccccc1Cl)c1cc(-c2cccnc2)ccc1Cl

IC50 (P2X purinoceptor 7 [2]): 0.25 µM
Compound: Cc1ccc(-c2ccc(Cl)c(C(=O)NCCc3ccccc3Cl)c2)nn1

Compound: Cc1nc(-c2ccc(Cl)c(C(=O)NCC3(O)CCCCCC3)c2)cs1
IC50 (P2X purinoceptor 7 [3]): 0.006 µM

bioavailability [12]: 9%
IC50 (P2X purinoceptor 7 [2]): 0.002 µM
IC50 (P2X purinoceptor 7 [3]): 0.0005 µM
IC50 (P2X purinoceptor 7 [4]): 0.003 µM
Vd [13]: 11.7 L/kg
half-life ([5]; liver microsomes): > 2 h
Ratio (MDCK [6]): 11.5
permeability (MDCK [7]): 2.39 ×10⁻⁶ cm/s
Papp A→B [8]: 2.98 ×10⁻⁶ cm/s
permeability (MDCK [9]): 0.26 ×10⁻⁶ cm/s
logD [10]: 1.6
logP [11]: 2.6
half-life [14]: 8.36 h
Compound: Cc1cc(-c2ccc(Cl)c(C(=O)NCC3(O)CCCCCC3)c2)nn1C[C@@H](O)CN.Cl

IC50 (P2X purinoceptor 7 [2]): 1.05 µM
Compound: O=C(NCCc1ccccc1Cl)c1cc(-c2n[nH]c(=O)[nH]c2=O)ccc1Cl

inhibition [1]: 0%
Compound: Cc1cccc(-c2ccc(Cl)c(C(=O)NCCc3ccccc3Cl)c2)n1

IC50 (P2X purinoceptor 7 [2]): 0.49 µM
Compound: COc1ccc(-c2ccc(Cl)c(C(=O)NCCc3ccccc3Cl)c2)nn1

IC50 (P2X purinoceptor 7 [2]): 4.6 µM
Compound: O=C(NCCc1ccccc1Cl)c1cc(-c2ccc(C(F)(F)F)cn2)ccc1Cl

IC50 (P2X purinoceptor 7 [3]): 0.18 µM
Compound: O=C(NCC1(O)CCCCCC1)c1cc(-c2ccc(=O)[nH]n2)ccc1Cl

IC50 (P2X purinoceptor 7 [2]): 0.0013 µM
Compound: COC[C@H](O)Cn1c(=O)cnn(-c2ccc(Cl)c(C(=O)NCC3(O)CCCCCC3)c2)c1=O [CE-224535]

IC50 (P2X purinoceptor 7 [2]): 0.82 µM
Compound: CCCCC(CC)CNC(=O)c1cc(-n2ncc(=O)[nH]c2=O)ccc1Cl (stereo not drawn)

IC50 (P2X purinoceptor 7 [2]): 0.24 µM
half-life ([5]; microsomes): 0.372 h
Compound: O=C(NCC1(O)CCCCCC1)c1cc(-c2cnoc2)ccc1Cl

IC50 (P2X purinoceptor 7 [2]): 0.11 µM
Compound: Cc1ccc(-c2ccc(Cl)c(C(=O)NCCc3ccccc3Cl)c2)nc1
